From US8921385B2, “5-substituted quinazolinone derivatives and compositions comprising and methods of using the same” (Celgene Corporation, priority 2006, dated 2014) come the findings set out here.

Structures can show the parent of a compound that is named as a salt.

On to `CCCCc1nc2cccc(C)c2c(=O)n1C1CCC(=O)NC1=O` (stereo not shown) [Example 6.14, 3-(2-Butyl-5-Methyl-4-Oxo-4H-Quinazolin-3-yl)-Piperidine-2,6-Dione], for which the melting point (usually the temperature of the solid-liquid transition) lay within 190 to 192 °C. On to `Cc1ccc(NC(=O)NCc2cccc3nc(C)n(C4CCC(=O)NC4=O)c(=O)c23)cc1Cl` (stereo not shown) [Example 6.47, 1-(3-Chloro-4-Methyl-Phenyl)-3-[3-(2,6-Dioxo-Piperidin-3-yl)-2-Methyl-4-Oxo-3,4-Dihydro-Quinazolin-5-ylmethyl]-Urea], for which the melting point is 250 to 252 °C. Then `Cc1nc2cccc(CNC(=O)Cc3ccc(Cl)cc3)c2c(=O)n1C1CCC(=O)NC1=O` (stereo not shown) [Example 6.40, 2-(4-Chloro-Phenyl)-N-[3-(2,6-Dioxo-Piperidin-3-yl)-2-Methyl-4-Oxo-3,4-Dihydro-Quinazolin-5-ylmethyl]-Acetamide], with 285 °C (dec.). Regarding `Cc1cccc(C(=O)NCc2cccc3nc(C)n(C4CCC(=O)NC4=O)c(=O)c23)c1` (stereo not shown) [Example 6.50, N-[3-(2,6-Dioxo-Piperidin-3-yl)-2-Methyl-4-Oxo-3,4-Dihydro-Quinazolin-5-ylmethyl]-3-Methyl-Benzamide], the melting point was 263 to 265 °C. The molecule `Cc1nc2cccc(CNC(=O)c3ccc(C(F)(F)F)cc3)c2c(=O)n1C1CCC(=O)NC1=O` (stereo not shown) [Example 6.53, N-[3-(2,6-Dioxo-Piperidin-3-yl)-2-Methyl-4-Oxo-3,4-Dihydro-Quinazolin-5-ylmethyl]-4-Trifluoromethyl-Benzamide] registered a melting point of 253 to 255 °C. `Cc1nc2cccc(CNC(=O)c3ccccn3)c2c(=O)n1C1CCC(=O)NC1=O` (stereo not shown) [Example 6.39, Pyridine-2-Carboxylic Acid [3-(2,6-Dioxo-Piperidin-3-yl)-2-Methyl-4-Oxo-3,4-Dihydro-Quinazolin-5-ylmethyl]-Amide] came in with a melting point of 261 to 263 °C. Then `Cc1cccc2nc(C)n([C@@]3(C)CCC(=O)NC3=O)c(=O)c12` [Example 6.7, 3R-3-(2,5-Dimethyl-4-Oxo-4H-Quinazolin-3-yl)-3-Methyl-Piperidine-2,6-Dione], with 298 to 301 °C.

In turn, `Cc1nc2cccc(NC(=O)CN(C)C)c2c(=O)n1C1CCC(=O)NC1=O` (stereo not shown) (as salt: chloride) [Example 6.25, 2-Dimethylamino-N-[3-(2,6-Dioxo-Piperidin-3-yl)-2-Methyl-4-Oxo-3,4-Dihydro-Quinazolin-5-yl]-Acetamide Hydrogen Chloride] had a melting point of 256 to 258 °C. `CCOCC(=O)Nc1cccc2nc(C)n(C3CCC(=O)NC3=O)c(=O)c12` (stereo not shown) [Example 6.24, N-[3-(2,6-Dioxo-Piperidin-3-yl)-2-Methyl-4-Oxo-3,4-Dihydro-Quinazolin-5-yl]-2-Ethoxy-Acetamide] showed a melting point of 291 to 293 °C. In the case of `Cc1nc2cccc(CNC(=O)CN(C)C)c2c(=O)n1C1CCC(=O)NC1=O` (stereo not shown) [Example 6.35, 2-Dimethylamino-N-[3-(2,6-Dioxo-Piperidin-3-yl)-2-Methyl-4-Oxo-3,4-Dihydro-Quinazolin-5-ylmethyl]-Acetamide], the melting point was 275 °C (dec.). On to `Cc1cccc2nc(-c3ccccc3)n(C3CCC(=O)NC3=O)c(=O)c12` (stereo not shown) [Example 6.16, 3-(5-Methyl-4-Oxo-2-Phenyl-4H-Quinazolin-3-yl)-Piperidine-2,6-Dione], for which the melting point lay within 298 to 300 °C. Then `Cc1nc2cccc(CNC(=O)Nc3ccc(Cl)cc3)c2c(=O)n1C1CCC(=O)NC1=O` (stereo not shown) [Example 6.46, 1-(4-Chloro-Phenyl)-3-[3-(2,6-Dioxo-Piperidin-3-yl)-2-Methyl-4-Oxo-3,4-Dihydro-Quinazolin-5-ylmethyl]-Urea], with 255 to 257 °C; and `Cc1cccc2ncn(C3CCC(=O)NC3=O)c(=O)c12` (stereo not shown) [Example 6.1, 3-(5-Methyl-4-Oxo-4H-Quinazolin-3-yl)-Piperidine-2,6-Dione], with 262 to 264 °C.
